Data from US20110250254A1, “ANTIMICROBIAL COMPOSITIONS AND USES” (priority 2008, published 2011).
Like-named read-outs stand apart in the source and are kept apart here.

What was measured:
Format in all cases: cell-based
[1] = test system: Vibrio harveyi BB886 (AI-1 reporter); experiment: Bioluminescence assay of AI-1 quorum-sensing; settings: compared with the corresponding furanone compound
Procedure: (§1) The effect of (Z)-5-(bromomethylene) thiophen-2(5H)-one on AI-1 and AI-2 quorum-sensing by bacteria was tested in a bioluminescence assay as follows:
(§2) Inhibition of quorum sensing was assessed as the ability of the furanone to reduce bioluminescence induced by cell free bacterial culture supernatant containing either AI-1 or AI-2 signal molecules. Vibrio harveyi BB886 was used as an AI-1 reporter and Vibrio harveyi BB170 was used as reporter of AI-2 communication.

[2] = test system: Vibrio harveyi BB170 (AI-2 reporter); experiment: Bioluminescence assay of AI-2 quorum-sensing; settings: compared with the corresponding furanone compound
Procedure: as §1, §2

[3] = test system: V. harveyi; experiment: Shaking biofilm model (200 rpm), safranine staining
Procedure: (§3) According to the static biofilm model, a given thiophenone 200 μmol/L was dissolved in 500 μl absolute ethanol and applied to wells of a standard 24 well microtiter plate. The ethanol was evaporated from the wells in a laminar air sterile work bench at room temperature so as to leave a coating of the thiophenone in the well. A sample of bacteria was then added to the well and incubated for a given period of time. After incubation, the percentage of bacteria remaining was assessed by safranine staining of the biofilm. Bound safranine was released by acetic acid and optical density was measured in Synergy HT Multi-Detection Microplate Reader and compared to a control.
(§4) According to the shaking biofilm model, the microtiter plates were shaken (200 rpm) in a Minitron Incubator Shaker during biofilm formation.

[4] = test system: S. epidermidis; experiment: as above; settings: Staphylococcus epidermidis, S. epidermidis, read-out: Shaking biofilm model % Remaining
Procedure: as §3, §4

[5] = test system: Pseudoalteromonas; experiment: Static biofilm model, safranine staining; settings: 4 h incubation
Procedure: as §3

[6] = test system: V. harveyi; experiment: Static biofilm model, safranine staining; settings: 4 h incubation
Procedure: as §3

[7] = test system: S. epidermidis; experiment: Static biofilm model, safranine staining; settings: 6 h incubation, thiophenone 200 μmol/L coating
Procedure: as §3

[8] = test system: E. faecalis; experiment: Static biofilm model, safranine staining; settings: 4 h incubation
Procedure: as §3

O=C1C=C/C(=C/Br)S1 [Thio101, (Z)-5-(bromomethylene) thiophen-2(5H)-one]
Inhibition of AI-1 quorum-sensing [1]: considerably more effective
Inhibition of AI-2 quorum-sensing [2]: considerably more effective
Shaking biofilm model % Remaining ([3]; 8 h incubation): 54%
Shaking biofilm model % Remaining ([3]; 18 h incubation): 56%
activity at 200 µM ([4]; 6 h incubation): 13%
activity at 200 µM ([4]; 20 h incubation): 15%
Static biofilm model % Remaining ([5]; coating): 52%
Static biofilm model % Remaining ([5]; in medium): 36%
Static biofilm model % Remaining ([6]; coating): 20%
Static biofilm model % Remaining ([6]; in medium): 9%
Static biofilm model % Remaining [7]: 28%
Static biofilm model % Remaining ([8]; coating): 66%
Static biofilm model % Remaining ([8]; in medium): 32%
